Structures can show the parent of a compound that is named as a salt.
Target: T1, human orexin-2 (hOX2) receptor (Homo sapiens, UniProt O43614)
T1 construct: expressed in transfected cells
T1 sequence (O43614 1-444): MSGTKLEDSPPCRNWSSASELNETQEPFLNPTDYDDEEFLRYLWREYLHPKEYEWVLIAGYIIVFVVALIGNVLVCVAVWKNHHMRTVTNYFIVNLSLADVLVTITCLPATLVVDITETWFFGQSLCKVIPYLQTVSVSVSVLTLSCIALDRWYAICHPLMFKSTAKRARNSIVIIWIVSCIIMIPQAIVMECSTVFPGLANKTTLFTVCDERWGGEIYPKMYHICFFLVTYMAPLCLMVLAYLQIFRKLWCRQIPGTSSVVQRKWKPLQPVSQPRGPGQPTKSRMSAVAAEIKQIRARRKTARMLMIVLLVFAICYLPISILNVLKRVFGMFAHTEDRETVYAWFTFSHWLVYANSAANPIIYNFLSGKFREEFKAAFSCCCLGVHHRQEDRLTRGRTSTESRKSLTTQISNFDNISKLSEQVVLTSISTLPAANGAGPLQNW
Assay: Intracellular Ca2+ mobilization assay (FLIPR), CHO(dHFr-) cells expressing hOX2, orexin-A at EC80 as agonist
Format: cell-based
Details: Kb=IC50/(1+[A]/EC50); CHO(dHFr-)-OX2R cells, antagonist applied 25 min before orexin-A EC80
Method in brief: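 Fluo-4-loaded CHO(dHFr−) cells stably expressing hOX2 were preincubated 25 min at 37 °C with antagonist (11 concentrations, 0.0001–10 μM), then challenged with orexin-A at its daily-determined EC80. Peak fluorescence over basal read by FLIPR; IC50 from Hill fit, Kb via Kb=IC50/(1+[A]/EC50).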

Row | Structure (SMILES) | Kb [µM]
1 | COC(CNC(C(=O)N(CCc1ccc(C)cc1)c1ccc(C)c(C)c1)c1ccccc1)OC (stereo not drawn) [Example 129, 2-(2,2-Dimethoxy-ethylamino)-N-(3,4-dimethyl-phenyl)-2-phenyl-N-(2-p-tolyl-ethyl)-acetamide] | 0.0173
2 | COc1cccc(N(CCc2ccc(C(F)(F)F)cc2)C(=O)C(N)c2ccccc2OC)c1 (stereo not drawn) [Example 38, 2-Amino-2-(2-methoxy-phenyl)-N-(3-methoxy-phenyl)-N-[2-(4-trifluoromethyl-phenyl)-ethyl]-acetamide] | 0.0577
3 | NC(C(=O)N(CCc1ccc(C(F)(F)F)cc1)c1ccc2c(c1)OCO2)c1ccccc1 (stereo not drawn) [Example 58, 2-Amino-N-benzo[1,3]dioxol-5-yl-2-phenyl-N-[2-(4-trifluoromethyl-phenyl)-ethyl]-acetamide] | 0.0275
4 | Cc1ccc(N(CCc2ccc(OC(F)F)cc2)C(=O)[C@@H](N)c2ccccc2)cc1C [Example 210, (S)-2-Amino-N-[2-(4-difluoromethoxy-phenyl)-ethyl]-N-(3,4-dimethyl-phenyl)-2-phenyl-acetamide hydrochloride] | 0.0077
5 | COc1ccc(N(CCc2ccc(C(F)(F)F)cc2)C(=O)C(O)c2ccccc2OC)cc1OC (stereo not drawn) [Example 17, N-(3,4-dimethoxyphenyl)-2-hydroxy-2-(2-methoxyphenyl)-N-{2-[4-(trifluoromethyl)phenyl]ethyl}acetamide] | 0.0165
6 | Cc1ccc(CCN(C(=O)C(NCC(C)O)c2ccccc2)c2ccc(C)c(C)c2)cc1 (stereo not drawn) [Example 121, N-(3,4-Dimethyl-phenyl)-2-(2-hydroxy-propylamino)-2-phenyl-N-(2-p-tolyl-ethyl)-acetamide] | 0.0109
7 | Cc1ccc(N(CCc2ccc(Cl)cc2F)C(=O)[C@@H](N)c2ccccc2)cc1C [Example 192, (S)-2-Amino-N-[2-(4-chloro-2-fluoro-phenyl)-ethyl]-N-(3,4-dimethyl-phenyl)-2-phenyl-acetamide; hydrochloride] | 0.0148
8 | Cc1ccc(CCN(C(=O)C(NCc2ccco2)c2ccccc2)c2ccc(C)c(C)c2)cc1 (stereo not drawn) [Example 130, N-(3,4-Dimethyl-phenyl)-2-[(furan-2-ylmethyl)-amino]-2-phenyl-N-(2-p-tolyl-ethyl)-acetamide] | 0.0416
9 | Cc1ccc(N(CCc2ccc(C(F)(F)F)cc2)C(=O)[C@@H](N)c2ccccc2)cc1 [Example 146, (S)-2-Amino-2-phenyl-N-p-tolyl-N-[2-(4-trifluoromethyl-phenyl)-ethyl]-acetamide] | 0.0335
10 | Cc1ccc(N(CCc2ccc(F)c(C(F)(F)F)c2)C(=O)[C@@H](N)c2ccccc2)cc1C [Example 187, (S)-2-Amino-N-(3,4-dimethyl-phenyl)-N-[2-(4-fluoro-3-trifluoromethyl-phenyl)-ethyl]-2-phenyl-acetamide hydrochloride] | 0.0327
11 | Cc1ccc(N(CCc2ccccc2C)C(=O)[C@@H](N)c2ccccc2)cc1C [Example 185, (S)-2-Amino-N-(3,4-dimethyl-phenyl)-2-phenyl-N-(2-o-tolyl-ethyl)-acetamide hydrochloride] | 0.0305
12 | CN[C@H](C(=O)N(CCc1ccc(C(F)(F)F)cc1)c1ccc(OC)c(OC)c1)c1ccccc1OC [Example 101, (S)—N-(3,4-Dimethoxy-phenyl)-2-(2-methoxy-phenyl)-2-methylamino-N-[2-(4-trifluoromethyl-phenyl)-ethyl]-acetamide hydrochloride] | 0.0133
13 | NC(C(=O)N(CCc1ccc(C(F)(F)F)cc1)c1ccc(OC(F)F)cc1)c1ccccc1 (stereo not drawn) [Example 105, 2-Amino-N-(4-difluoromethoxy-phenyl)-2-phenyl-N-[2-(4-trifluoromethyl-phenyl)-ethyl]-acetamide] | 0.0414
14 | CC(=O)NCCNC(C(=O)N(CCc1ccc(C)cc1)c1ccc(C)c(C)c1)c1ccccc1 (stereo not drawn) [Example 126, 2-(2-Acetylamino-ethylamino)-N-(3,4-dimethyl-phenyl)-2-phenyl-N-(2-p-tolyl-ethyl)-acetamide] | 0.0086
15 | Cc1ccc(N(CCc2cc(C(F)(F)F)ccc2F)C(=O)[C@@H](N)c2ccccc2)cc1C [Example 193, (S)-2-Amino-N-(3,4-dimethyl-phenyl)-N-[2-(2-fluoro-5-trifluoromethyl-phenyl)-ethyl]-2-phenyl-acetamide; hydrochloride] | 0.016
16 | Cc1ccc(N(CCc2ccc(F)cc2F)C(=O)[C@@H](N)c2ccccc2)cc1C [Example 188, (S)-2-Amino-N-[2-(2,4-difluoro-phenyl)-ethyl]-N-(3,4-dimethyl-phenyl)-2-phenyl-acetamide hydrochloride] | 0.0269
17 | COc1ccc(N(CCc2ccc(C(F)(F)F)cc2)C(=O)[C@@H](NC2COC2)c2ccccc2)cc1OC [Example 72, (S)—N-(3,4-Dimethoxy-phenyl)-2-(oxetan-3-ylamino)-2-phenyl-N-[2-(4-trifluoromethyl-phenyl)-ethyl]-acetamide] | 0.0023

Row | Structure (SMILES) | Kb [µM]
18 | Cc1ccc(CCN(C(=O)C(NCC2CCCO2)c2ccccc2)c2ccc(C)c(C)c2)cc1 (stereo not drawn) [Example 127, N-(3,4-Dimethyl-phenyl)-2-phenyl-2-[(tetrahydro-furan-2-ylmethyl)-amino]-N-(2-p-tolyl-ethyl)-acetamide] | 0.0222
19 | NC(C(=O)N(CCc1ccc(C(F)(F)F)cc1)c1cccc(C2(O)COC2)c1)c1ccccc1 (stereo not drawn) [Example 95, 2-Amino-N-[3-(3-hydroxy-oxetan-3-yl)-phenyl]-2-phenyl-N-[2-(4-trifluoromethyl-phenyl)-ethyl]-acetamide] | 0.0834
20 | Cc1ccc(CCN(C(=O)C(N)c2ccccc2)c2ccc(C)c(C)c2)cc1 (stereo not drawn) [Example 89, 2-Amino-N-(3,4-dimethyl-phenyl)-2-phenyl-N-(2-p-tolyl-ethyl)-acetamide] | 0.0241
21 | COc1cc(N(CCc2ccc(C(F)(F)F)cc2)C(=O)C(N)c2ccccc2)ccc1F (stereo not drawn) [Example 104, 2-Amino-N-(4-fluoro-3-methoxy-phenyl)-2-phenyl-N-[2-(4-trifluoromethyl-phenyl)-ethyl]-acetamide] | 0.022
22 | COc1ccc(N(CCc2ccc(C(F)(F)F)cc2)C(=O)C(O)c2ccc(F)cc2)cc1OC (stereo not drawn) [Example 26, N-(3,4-dimethoxyphenyl)-2-(4-fluorophenyl)-2-hydroxy-N-{2-[4-(trifluoromethyl)phenyl]ethyl}acetamide] | 0.0592
23 | Cc1ccc(CCN(C(=O)[C@@H](NC(=O)CN)c2ccccc2)c2ccc(C)c(C)c2)cc1 [Example 248, (S)-2-(2-Amino-acetylamino)-N-(3,4-dimethyl-phenyl)-2-phenyl-N-(2-p-tolyl-ethyl)-acetamide] | 0.0353
24 | Cc1ccc(N(CCc2cccc(F)c2)C(=O)[C@@H](N)c2ccccc2)cc1C [Example 182, (S)-2-Amino-N-(3,4-dimethyl-phenyl)-N-[2-(3-fluoro-phenyl)-ethyl]-2-phenyl-acetamide hydrochloride] | 0.0283
25 | COc1ccc(N(CCc2ccc(C(F)(F)F)cc2)C(=O)C(O)c2ccc(Cl)cc2)cc1OC (stereo not drawn) [Example 30, 2-(4-chlorophenyl)-N-(3,4-dimethoxyphenyl)-2-hydroxy-N-{2-[4-(trifluoromethyl)phenyl]ethyl}acetamide] | 0.0757
26 | Cc1ccc(N(CCc2ccc(C(F)(F)F)cc2F)C(=O)[C@@H](N)c2ccccc2)cc1C [Example 196, (S)-2-Amino-N-(3,4-dimethyl-phenyl)-N-[2-(2-fluoro-4-trifluoromethyl-phenyl)-ethyl]-2-phenyl-acetamide hydrochloride] | 0.0171
27 | N[C@H](C(=O)N(CCc1ccc(F)cc1)c1ccc2c(c1)OCC2)c1ccccc1 [Example 243, (S)-2-Amino-N-(2,3-dihydro-benzofuran-6-yl)-N-[2-(4-fluoro-phenyl)-ethyl]-2-phenyl-acetamide hydrochloride] | 0.0604
28 | CN[C@H](C(=O)N(CCc1ccc(C(F)(F)F)cc1)c1ccc(C)c(C)c1)c1ccccc1OC [Example 157, (S)—N-(3,4-Dimethyl-phenyl)-2-(2-methoxy-phenyl)-2-methylamino-N-[2-(4-trifluoromethyl-phenyl)-ethyl]-acetamide] | 0.0322
29 | Cc1ccc(N(CCc2ccc(F)c(F)c2)C(=O)[C@@H](N)c2ccccc2)cc1C [Example 189, (S)-2-Amino-N-[2-(3,4-difluoro-phenyl)-ethyl]-N-(3,4-dimethyl-phenyl)-2-phenyl-acetamide hydrochloride] | 0.0071
30 | Cc1ccc(CCN(C(=O)[C@@H](NC(=O)[C@H](C)N)c2ccccc2)c2ccc(C)c(C)c2)cc1 [Example 251, (S)-2-Amino-N-{(S)-[(3,4-dimethyl-phenyl)-(2-p-tolyl-ethyl)-carbamoyl]-phenyl-methyl}-propionamide] | 0.0102
31 | COc1ccc(N(CCc2ccc(C(F)(F)F)cc2)C(=O)[C@@H](N)c2ccccc2OC)cc1OC [Example 103, (S)-2-Amino-N-(3,4-dimethoxy-phenyl)-2-(2-methoxy-phenyl)-N-[2-(4-trifluoromethyl-phenyl)-ethyl]-acetamide hydrochloride] | 0.0053
32 | Cc1ccc(CCN(C(=O)C(NC(C)(C)CO)c2ccccc2)c2ccc(C)c(C)c2)cc1 (stereo not drawn) [Example 132, N-(3,4-Dimethyl-phenyl)-2-(2-hydroxy-1,1-dimethyl-ethylamino)-2-phenyl-N-(2-p-tolyl-ethyl)-acetamide] | 0.0642
33 | Cc1ccc(N(CCc2ccc(Cl)cc2)C(=O)C(N)c2ccccc2)cc1C (stereo not drawn) [Example 93, 2-Amino-N-[2-(4-chloro-phenyl)-ethyl]-N-(3,4-dimethyl-phenyl)-2-phenyl-acetamide] | 0.0888

Source: patent US20090036422A1 (priority 2007, published 2009)
